This test deals with T1, UBE2T (Homo sapiens, UniProt Q9NPD8).
T1 construct: fluorescently labelled UBE2T protein for MST
The experiment in a line: microscale thermophoresis. Type of test: binding. The following applies: fluorescently labelled UBE2T; compound titrated 31 nM to 500 μM. Background: MST reads how a fluorescent partner responds to local heating, with and without ligand.

T1 sequence (Q9NPD8 whole entry): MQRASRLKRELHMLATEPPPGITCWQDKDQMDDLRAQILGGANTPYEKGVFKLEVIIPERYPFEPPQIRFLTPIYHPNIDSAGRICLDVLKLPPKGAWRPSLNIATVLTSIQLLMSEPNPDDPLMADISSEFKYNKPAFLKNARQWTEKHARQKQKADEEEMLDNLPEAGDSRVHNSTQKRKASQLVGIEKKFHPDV

Consider `NS(=O)(=O)c1ccc(NC(=O)c2c(O)c3c4c(sc3[nH]c2=O)CCCC4)cc1` [M435-1279], for which binding was put at a Kd of 50.5 µM.

Source of the values: publication PMC7862066, “A novel UBE2T inhibitor suppresses Wnt/β-catenin signaling hyperactivation and gastric cancer progression by blocking RACK1 ubiquitination” (Oncogene, 2020).
